IC50 data for five compounds are collected here from BindingDB's records for doi:10.1074/jbc.M512374200 (German Cancer Research Center, 2006).

The target in experiment [1] is cAMP-dependent protein kinase catalytic subunit alpha [E127D] (Bos taurus, UniProt P00517, E127D). Nature of the experiment: Kinase Activity Assay. The procedure: (§1) The enzyme activity was assayed by using an ATP regenerative NADH consuming system. The reaction was started with adding ATP to the mixture containing enzyme, substrate, and inhibitor. The decrease of NADH was time-dependent, and was measured at 340 nm with three independent measurements per data point. IC50 values were calculated using SigmaPlot 8.0 and Origin 5 software.

Experiment [2] deals with cAMP-dependent protein kinase catalytic subunit alpha [T183A] (Bos taurus, UniProt P00517, T183A). Nature of the experiment: Kinase Activity Assay. The procedure: as §1
Experiment [3] addresses cAMP-dependent protein kinase catalytic subunit alpha [V123M,T183A] (Bos taurus, UniProt P00517, T183A/V123M). Nature of the experiment: Kinase Activity Assay. Here is the method:
as §1

The target of experiment [4] is cAMP-dependent protein kinase catalytic subunit alpha (Bos taurus, UniProt P00517). Nature of the experiment: Kinase Activity Assay. Conditions: pH 6.8; 25 °C. Here is the method: as §1
Experiment [5] deals with T1, Rho-associated protein kinase 2 (Bos taurus, UniProt Q28021). Nature of the experiment: Kinase Activity Assay. The procedure: as §1
Experiment [6] concerns the target cAMP-dependent protein kinase catalytic subunit alpha [V123M] (Bos taurus, UniProt P00517, V123M). Nature of the experiment: Kinase Activity Assay. Conditions: pH 6.8; 25 °C. Here is the method:
as §1

The target in experiment [7] is cAMP-dependent protein kinase catalytic subunit alpha [L49I] (Bos taurus, UniProt P00517, L49I). Nature of the experiment: Kinase Activity Assay. Conditions: pH 6.8; 25 °C. The procedure:
as §1

Experiment [8] has as its target cAMP-dependent protein kinase catalytic subunit alpha [V123M,Q181K,T183A] (Bos taurus, UniProt P00517, Q181K/T183A/V123M). Nature of the experiment: Kinase Activity Assay. The procedure: as §1
Experiment [9] addresses cAMP-dependent protein kinase catalytic subunit alpha [L49I,V123M,Q181K,T183A] (Bos taurus, UniProt P00517, L49I/Q181K/T183A/V123M). Nature of the experiment: Kinase Activity Assay. The procedure: as §1
In experiment [10] the target is cAMP-dependent protein kinase catalytic subunit alpha [Q181K,T183A] (Bos taurus, UniProt P00517, Q181K/T183A). Nature of the experiment: Kinase Activity Assay. The procedure: as §1
Experiment [11] addresses cAMP-dependent protein kinase catalytic subunit alpha [L49I,V123M,E127D,Q181K,T183A] (Bos taurus, UniProt P00517, E127D/L49I/Q181K/T183A/V123M). Nature of the experiment: Kinase Activity Assay. The procedure: as §1
In experiment [12] the target is cAMP-dependent protein kinase catalytic subunit alpha [L49I,T183A] (Bos taurus, UniProt P00517, L49I/T183A). Nature of the experiment: Kinase Activity Assay. The procedure: as §1
The target in experiment [13] is cAMP-dependent protein kinase catalytic subunit alpha [L49I,Q181K,T183A] (Bos taurus, UniProt P00517, L49I/Q181K/T183A). Nature of the experiment: Kinase Activity Assay. The procedure:
as §1

Experiment [14] addresses T1, Rho-associated protein kinase 2. Nature of the experiment: Kinase Inhibition Assay. Here is the method:
The kinase activity was determined by incubation of enzyme and its substrate, and test compound, in the presence ATP/[gamma-33P] ATP. After incubation, the reaction was stopped, and the 33P-phosphorylated substrate was determined by scintillation counting.

Each structure is given as a SMILES string.

T1 sequence (Q28021 whole entry): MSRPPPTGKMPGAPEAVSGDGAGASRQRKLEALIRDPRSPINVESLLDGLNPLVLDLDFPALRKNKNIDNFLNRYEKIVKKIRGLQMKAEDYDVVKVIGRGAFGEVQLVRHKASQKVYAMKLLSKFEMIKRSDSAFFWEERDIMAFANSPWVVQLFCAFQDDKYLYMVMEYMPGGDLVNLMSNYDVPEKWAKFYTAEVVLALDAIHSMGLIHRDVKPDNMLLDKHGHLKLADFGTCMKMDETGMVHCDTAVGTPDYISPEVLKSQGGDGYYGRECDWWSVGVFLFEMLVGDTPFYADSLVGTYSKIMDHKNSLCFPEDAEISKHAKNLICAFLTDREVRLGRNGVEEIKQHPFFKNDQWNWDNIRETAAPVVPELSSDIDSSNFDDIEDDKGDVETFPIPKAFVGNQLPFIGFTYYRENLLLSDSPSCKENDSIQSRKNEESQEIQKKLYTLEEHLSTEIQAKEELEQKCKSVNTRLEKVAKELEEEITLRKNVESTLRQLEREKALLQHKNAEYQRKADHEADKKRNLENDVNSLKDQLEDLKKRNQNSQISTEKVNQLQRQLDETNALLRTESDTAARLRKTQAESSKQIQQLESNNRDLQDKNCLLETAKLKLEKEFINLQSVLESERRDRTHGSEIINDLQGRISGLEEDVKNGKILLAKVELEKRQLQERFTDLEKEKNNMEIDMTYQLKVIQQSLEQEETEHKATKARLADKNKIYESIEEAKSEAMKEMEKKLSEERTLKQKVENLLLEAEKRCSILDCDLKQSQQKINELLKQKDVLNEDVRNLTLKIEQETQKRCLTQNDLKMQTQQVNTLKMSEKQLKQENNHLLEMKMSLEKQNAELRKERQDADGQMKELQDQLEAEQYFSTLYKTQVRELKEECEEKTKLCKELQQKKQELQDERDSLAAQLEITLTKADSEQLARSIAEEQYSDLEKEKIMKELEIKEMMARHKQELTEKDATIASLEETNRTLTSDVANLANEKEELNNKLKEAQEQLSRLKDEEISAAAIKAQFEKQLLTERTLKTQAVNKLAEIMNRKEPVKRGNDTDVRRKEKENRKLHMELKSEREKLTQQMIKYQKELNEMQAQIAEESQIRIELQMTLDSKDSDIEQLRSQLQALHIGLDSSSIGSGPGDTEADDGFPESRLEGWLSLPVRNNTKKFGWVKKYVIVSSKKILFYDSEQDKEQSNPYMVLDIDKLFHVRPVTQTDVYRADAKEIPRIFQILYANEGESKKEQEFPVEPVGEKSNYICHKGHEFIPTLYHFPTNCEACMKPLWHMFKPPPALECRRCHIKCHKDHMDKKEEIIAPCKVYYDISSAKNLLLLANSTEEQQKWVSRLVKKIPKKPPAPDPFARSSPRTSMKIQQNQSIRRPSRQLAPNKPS

Broadly, the IC50 is the midpoint of a concentration-inhibition curve. The low end stands for greater potency, the high end for weaker potency. Take `Cc1cncc2cccc(S(=O)(=O)N3CCCNC[C@@H]3C)c12` [H-1152]: the IC50 in experiment [1] is 0.493 µM; in experiment [2], 0.109 µM; in experiment [3] it was 0.293 µM; in experiment [4] it was 0.394 µM; in experiment [5] it was less than 0.045 µM; in [6], 1.52 µM. Moreover, the IC50 in experiment [7] is 0.426 µM; in [8], 0.223 µM; in [9] it was 0.089 µM; in experiment [10], 0.109 µM.

On to `C[C@@H](N)[C@H]1CC[C@H](C(=O)Nc2ccncc2)CC1` [4-[(1R)-1-aminoethyl]-N-(pyridin-4-yl)cyclohexane-1-carboxamide], for which the IC50 stood at 16 µM in experiment [1]; 9 µM in experiment [2]; 31 µM in experiment [3]; 42 µM in [4]; 0.5 µM in experiment [5]; 60 µM in experiment [6]. Further, the half-maximal inhibitory concentration (IC50) turned out to be 6 µM in experiment [11]; 28 µM in [7]; 12 µM in [12]; 25 µM in experiment [8]; 6 µM in [13]; 18 µM in experiment [9]. The same compound gave a half-inhibitory concentration (IC50) in [10] of 9 µM.

Consider `O=S(=O)(c1cccc2cnccc12)N1CCCNCC1` [AT877], for which inhibition in experiment [5] was half-maximal at 0.485 µM (IC50).

In the case of `CCCCCCOC(=O)[C@]1(O)C[C@@H]2O[C@@]1(C)n1c3ccccc3c3c4c(c5c6ccccc6n2c5c31)C(=O)NC4` [hexyl (15R,16S,18S)-16-hydroxy-15-methyl-3-oxo-28-oxa-4,14,19-triazaoctacyclo[12.11.2.1^{15,18}.0^{2,6}.0^{7,27}.0^{8,13}.0^{19,26}.0^{20,25}]octacosa-1(26),2(6),7(27),8(13),9,11,20(25),21,23-nonaene-16-carboxylate], the IC50 is 1.82 µM in experiment [1]; less than 0.045 µM in experiment [2]; 0.056 µM in [4]; 1.8 µM in experiment [5]; 0.222 µM in experiment [6]; 1.3 µM in [11]. Also, the IC50 is 10.3 µM in experiment [7]; 0.068 µM in experiment [8]; 5.54 µM in experiment [13]; 2.01 µM in experiment [9]; less than 0.045 µM in experiment [10].

`CN[C@@H]1C[C@H]2O[C@@](C)([C@@H]1OC)n1c3ccccc3c3c4c(c5c6ccccc6n2c5c31)C(=O)NC4` returned an IC50 in [14] of 0.0012 µM.
